Data published in article PMC3853768 (Molecular Pain, 2013).
Entries after “also recorded” stand apart in the source; their conditions may differ. Positions of bridges follow the written chain, without caps; N, C: chain ends. Residues, ends and D or L forms follow the SMILES beside them.

Legend:
Cav2.2 channel = conditions: cited from earlier work
rat = conditions: in vivo, iv; cited from earlier work
naïve mice (C57Bl/6j) [1] = conditions: mouse, in vivo, sc, 2 mg/kg
mice (C57 Bl6) = conditions: mouse, in vivo, sc
[2] = biological target: T1, N-type calcium currents (Cav2.2), mouse DRG neurons (Mus musculus, UniProt O55017); assay type: cell-based
[3] = test system: N-type VGCCs over the P/Q-type (Cav2.1); conditions: cited from earlier work
naïve mice (C57Bl/6j) [4] = conditions: mouse, in vivo, sc, 2 mg/kg; remark: listed apart in the source
[5] = biological target: T1, N-type calcium currents (Cav2.2), mouse DRG neurons; assay type: cell-based; remark: listed apart in the source
[6] = test system: CFA-injected mice (C57 Bl6); conditions: mouse, in vivo
[7] = test system: CFA-injected mice (C57 Bl6); conditions: mouse, in vivo; remark: listed apart in the source
[8] = test system: N-type calcium channels with auxiliary subunits; conditions: cited from earlier work
[9] = test system: excitatory monosynaptic transmission in the dorsal horn of the spinal cord; conditions: cited from earlier work

T1 sequence (O55017 whole entry): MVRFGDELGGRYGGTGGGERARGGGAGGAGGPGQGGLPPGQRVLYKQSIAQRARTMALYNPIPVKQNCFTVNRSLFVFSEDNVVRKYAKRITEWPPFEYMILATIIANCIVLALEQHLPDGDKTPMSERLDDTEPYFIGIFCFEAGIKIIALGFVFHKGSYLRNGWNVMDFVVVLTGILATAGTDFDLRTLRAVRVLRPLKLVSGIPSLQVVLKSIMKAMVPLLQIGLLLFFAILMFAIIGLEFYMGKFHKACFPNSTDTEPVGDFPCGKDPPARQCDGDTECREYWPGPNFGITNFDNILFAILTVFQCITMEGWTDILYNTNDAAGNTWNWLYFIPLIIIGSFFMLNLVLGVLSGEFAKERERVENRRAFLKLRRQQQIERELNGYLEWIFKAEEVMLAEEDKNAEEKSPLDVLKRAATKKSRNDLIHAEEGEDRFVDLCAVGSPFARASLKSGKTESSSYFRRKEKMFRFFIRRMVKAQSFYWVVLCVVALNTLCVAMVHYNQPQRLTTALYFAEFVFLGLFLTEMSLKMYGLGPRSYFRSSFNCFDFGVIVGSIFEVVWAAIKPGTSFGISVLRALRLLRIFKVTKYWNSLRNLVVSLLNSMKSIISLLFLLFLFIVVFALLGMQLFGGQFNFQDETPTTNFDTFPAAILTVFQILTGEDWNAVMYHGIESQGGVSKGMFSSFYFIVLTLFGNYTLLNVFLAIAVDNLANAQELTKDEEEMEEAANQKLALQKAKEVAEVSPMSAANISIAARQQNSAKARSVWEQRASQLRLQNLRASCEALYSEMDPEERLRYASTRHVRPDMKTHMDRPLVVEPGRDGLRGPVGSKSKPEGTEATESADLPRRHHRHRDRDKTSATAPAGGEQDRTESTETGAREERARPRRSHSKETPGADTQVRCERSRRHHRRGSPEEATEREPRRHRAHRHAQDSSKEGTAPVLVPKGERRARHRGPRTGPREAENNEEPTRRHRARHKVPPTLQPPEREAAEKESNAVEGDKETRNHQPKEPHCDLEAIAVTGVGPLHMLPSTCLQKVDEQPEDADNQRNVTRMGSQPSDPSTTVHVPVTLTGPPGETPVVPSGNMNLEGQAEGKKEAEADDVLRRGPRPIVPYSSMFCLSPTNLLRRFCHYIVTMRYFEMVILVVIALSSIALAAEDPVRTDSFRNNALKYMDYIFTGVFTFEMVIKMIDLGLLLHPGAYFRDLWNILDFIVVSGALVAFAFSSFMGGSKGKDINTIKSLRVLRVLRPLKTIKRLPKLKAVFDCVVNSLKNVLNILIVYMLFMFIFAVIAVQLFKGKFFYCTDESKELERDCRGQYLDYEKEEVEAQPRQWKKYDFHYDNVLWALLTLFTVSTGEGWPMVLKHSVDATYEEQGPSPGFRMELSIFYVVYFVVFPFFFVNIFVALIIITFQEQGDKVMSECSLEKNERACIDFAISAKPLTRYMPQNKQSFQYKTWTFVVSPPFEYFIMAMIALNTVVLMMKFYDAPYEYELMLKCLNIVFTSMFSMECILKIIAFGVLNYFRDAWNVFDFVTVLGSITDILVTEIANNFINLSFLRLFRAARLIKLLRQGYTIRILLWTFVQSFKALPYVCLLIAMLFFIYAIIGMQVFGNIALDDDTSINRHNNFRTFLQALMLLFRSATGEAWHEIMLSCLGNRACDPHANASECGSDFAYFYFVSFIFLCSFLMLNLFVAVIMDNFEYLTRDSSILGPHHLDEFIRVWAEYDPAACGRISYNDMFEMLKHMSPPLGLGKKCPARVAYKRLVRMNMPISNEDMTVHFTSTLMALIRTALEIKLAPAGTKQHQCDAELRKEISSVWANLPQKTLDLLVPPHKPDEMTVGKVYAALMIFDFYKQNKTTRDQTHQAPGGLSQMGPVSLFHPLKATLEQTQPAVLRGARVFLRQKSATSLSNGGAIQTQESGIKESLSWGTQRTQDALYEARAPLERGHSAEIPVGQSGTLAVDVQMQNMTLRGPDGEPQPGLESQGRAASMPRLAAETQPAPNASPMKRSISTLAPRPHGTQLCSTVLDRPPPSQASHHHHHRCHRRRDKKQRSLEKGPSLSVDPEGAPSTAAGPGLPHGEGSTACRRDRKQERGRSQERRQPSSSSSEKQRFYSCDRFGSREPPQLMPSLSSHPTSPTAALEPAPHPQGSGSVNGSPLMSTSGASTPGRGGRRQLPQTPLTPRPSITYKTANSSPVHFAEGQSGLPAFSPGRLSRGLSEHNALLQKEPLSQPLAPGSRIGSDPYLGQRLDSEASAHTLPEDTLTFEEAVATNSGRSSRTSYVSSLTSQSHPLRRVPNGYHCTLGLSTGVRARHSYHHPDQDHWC

SMILES	Rotarod performance, End rate (naïve mice (C57Bl/6j) [1])	Rotarod performance, Time to fall (naïve mice (C57Bl/6j) [1])	side-effects after systemic administration (mice (C57 Bl6))	recovery from block, 30 min [2]	reversibility of ICa block [2]	Grip strength, Peak tension (naïve mice (C57Bl/6j) [4])	Grip strength, Tension/weight (naïve mice (C57Bl/6j) [4])	rank order of potency to inhibit N-type calcium currents [5]	ceiling effect [6]	inhibition of Cav2.2 channel currents (Cav2.2 channel)	recovery from block in presence of β2a compared to β3 subunits [8]	maximal inhibition relative to CVID [5]	inhibition of excitatory monosynaptic transmission [9]	further results
CSCC[C@@H]1NC(=O)[C@H](CC(C)C)NC(=O)[C@H](CCCCN)NC(=O)[C@H](CO)NC(=O)[C@@H]2CSSC[C@@H]3NC(=O)[C@H](CO)NC(=O)CNC(=O)[C@H](CO)NC(=O)[C@H](CSSC[C@H](N)C(=O)N[C@@H](CCCCN)C(=O)N[C@@H](CO)C(=O)N[C@@H](CCCCN)C(=O)NCC(=O)N[C@@H](C)C(=O)N[C@@H](CCCCN)C(=O)N2)NC(=O)[C@H](CSSC[C@@H](C(N)=O)NC(=O)[C@H](CCCNC(=N)N)NC(=O)CNC(=O)[C@H](C(C)C)NC(=O)[C@H]([C@@H](C)O)NC(=O)CNC(=O)[C@H](CO)NC3=O)NC(=O)[C@H](CC(=O)O)NC(=O)[C@H](Cc2ccc(O)cc2)NC1=O [CVID] (H-CKSKGAKCSKLMYDCCSGSCSGTVGRC-NH2; disulfide 1-16, 8-20, 15-27)	18 ± 1.4 rpm	40 ± 4.1 s	not accompanied by side-effects such as motor deficits or sedation	no recovery was observed	completely irreversible; also recorded: no recovery was observed	121 ± 5.7 g	5.7 ± 0.3	least potent	reaching a ceiling effect	–	–	–	–	reversibility of inhibition (Cav2.2 channel): irreversible inhibition; antihyperalgesic effects (rat): dose-dependent antihyperalgesic effects; cardiovascular side effects (rat): without serious cardiovascular side effects; Recovery from block [2]: -1 ± 5 % of inhibition; selectivity for N-type VGCCs over P/Q-type [3]: higher selectivity for N-type VGCCs over the P/Q-type (Cav2.1); selectivity for N-type calcium channels [3]: high selectivity for N-type calcium channels; Log [IC50] [5]: -7.12 ± 0.04; Maximal Inhibition of ICa [5]: 52 ± 2 % of total; block of high-voltage activated ICa [5]: block of high-voltage activated ICa; inhibition of total ICa (Figure 1B) [5]: about 40%; effect on automated von Frey and incapacitance measures: incapacitance [6]: both measures appeared to be sensitive to subcutaneous injection of CVID; also recorded: partially reversed; reversal of incapacitance at peak time of action (2 h) [6]: significant reversal; dose at which response reaches a ceiling ([6]; sc): 0.2 mg/kg; peak time of action ([6]; sc): 2 h; effect on automated von Frey measure [7]: both measures appeared to be sensitive to subcutaneous injection of CVID; also recorded: partially reversed
C[C@@H]1NC(=O)CNC(=O)[C@H](CCCCN)NC(=O)CNC(=O)[C@H](CCCCN)NC(=O)[C@@H](N)CSSC[C@@H]2NC(=O)[C@@H]3CSSC[C@@H](C(N)=O)NC(=O)[C@H](CCCNC(=N)N)NC(=O)CNC(=O)[C@H](CO)NC(=O)[C@H](CCCNC(=N)N)NC(=O)[C@H](CSSC[C@H](NC(=O)[C@H](CO)NC1=O)C(=O)N[C@@H](CCCNC(=N)N)C(=O)N[C@@H](CCCNC(=N)N)C(=O)N[C@@H]([C@@H](C)O)C(=O)N[C@@H](CO)C(=O)N[C@@H](Cc1ccc(O)cc1)C(=O)N[C@@H](CC(=O)O)C(=O)N3)NC(=O)[C@H](CO)NC(=O)CNC(=O)[C@H]([C@@H](C)O)NC2=O [CVIE]	17 ± 1.4 rpm	36 ± 4.1 s	not accompanied by side-effects such as motor deficits or sedation	no recovery was observed	completely irreversible; also recorded: no recovery was observed	121 ± 6.9 g	5.5 ± 0.3	most potent	not seen with CVIE; also recorded: did not appear to reach a ceiling at the highest dose tested	potently and reversibly inhibited	much greater	very similar to that of CVID	reversibly inhibited	potency at ICa inhibition compared to CVID [5]: more than ten-fold compared to CVID; overall significance of AUC data, doses ([6]; sc): 2.0 mg/kg; potency versus CVID (AUC) ([6]; sc): not CVID at any dose; reversal of incapacitance relative to another peptide (CVIE vs CVID) ([6]; sc): did not reveal any significant differences; also recorded: not significantly greater than CVID
CC(C)C[C@@H]1NC(=O)[C@H](CCCNC(=N)N)NC(=O)[C@@H]2CSSC[C@@H]3NC(=O)[C@H](CO)NC(=O)[C@H](C)NC(=O)CNC(=O)[C@H](CCCCN)NC(=O)CNC(=O)[C@H](CCCCN)NC(=O)[C@@H](N)CSSC[C@H](NC(=O)[C@H](CSSC[C@@H](C(N)=O)NC(=O)[C@H](CCCNC(=N)N)NC(=O)CNC1=O)NC(=O)[C@H](CC(=O)O)NC(=O)[C@H](Cc1ccc(O)cc1)NC(=O)[C@H](CO)NC(=O)[C@H]([C@@H](C)O)NC(=O)[C@H](CCCNC(=N)N)NC(=O)[C@H](CCCNC(=N)N)NC3=O)C(=O)N[C@@H]([C@@H](C)O)C(=O)NCC(=O)N[C@@H](CO)C(=O)N2 [CVIF] (H-CKGKGASCRRTSYDCCTGSCRLGRC-NH2; disulfide 1-16, 8-20, 15-25)	17 ± 1.0 rpm	36 ± 3.0 s	–	–	partially reversible; also recorded: Partial recovery	121 ± 7.7 g	5.4 ± 0.4	–	–	potently and reversibly inhibited	much greater	very similar to that of CVID	reversibly inhibited	–
